Patent US20220289753A1, “SHP2 INHIBITORS” (IRBM S.P.A., priority 2019, published 2022)
pIC50: −log10 of the molar value.

Columns and labels:
[1] = target: T1, SHP-2 enzyme (Met1-Leu525) (Homo sapiens, UniProt Q06124); assay: SHP2 inhibition enzymatic assay (DiFMUP substrate, IRS1 peptide activation); assay type: biochemical; details: SHP2 wt; activated by 500 nM IRS1 peptide; 75 μM DiFMUP substrate
T1 construct: synthetized by Origene, Met1-Leu525, cat #TP750155; purchased Origene TP750155
T1 sequence (Q06124 1-525): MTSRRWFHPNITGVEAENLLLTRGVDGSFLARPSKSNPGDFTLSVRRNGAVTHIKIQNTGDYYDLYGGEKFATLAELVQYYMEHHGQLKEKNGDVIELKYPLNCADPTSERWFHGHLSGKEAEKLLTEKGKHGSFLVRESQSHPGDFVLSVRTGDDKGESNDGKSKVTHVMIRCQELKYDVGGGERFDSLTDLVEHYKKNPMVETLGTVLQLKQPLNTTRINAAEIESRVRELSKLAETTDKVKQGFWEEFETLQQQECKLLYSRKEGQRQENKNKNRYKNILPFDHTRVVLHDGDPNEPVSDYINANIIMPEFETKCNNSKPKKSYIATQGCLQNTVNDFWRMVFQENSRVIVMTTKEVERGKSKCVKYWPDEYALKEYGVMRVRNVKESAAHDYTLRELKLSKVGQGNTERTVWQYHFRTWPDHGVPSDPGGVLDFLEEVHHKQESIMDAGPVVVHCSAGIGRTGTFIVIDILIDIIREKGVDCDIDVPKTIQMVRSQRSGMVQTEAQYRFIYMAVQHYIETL
How it was run: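 SHP-2 (Met1-Leu525, 0.5 nM final) preincubated 30 min with compounds and IRS1 activating peptide in HEPES pH 7.2 buffer with NaCl, KCl, EDTA, tween-20, 5 mM DTT. DiFMUP then added for 30 min at room temperature and fluorescence read. IC50 from four-parameter logistic fit of % inhibition.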

[2] = system: ERK phosphorylation in KYSE-520 cells; assay: Phospho-ERK cellular assay (Advanced phospho-ERK1/2 (Thr202/Tyr204) TR-FRET kit); assay type: cell-based; details: Homo sapiens, KYSE-520, 2 h, KYSE-520 cells, 2 h at 37° C., TR-FRET; read-out: pERK IC50
How it was run: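 IC50 values are inflection points of four-parameter logistic fits of percent activity against compound dilution. Compound exposure lasted 2 h at 37° C in KYSE-520 cells. Lysates were probed overnight with Eu-cryptate/d2 antibodies to ERK1/2 phosphorylated at Thr202/Tyr204, so reduced TR-FRET indicates SHP2 inhibition.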

SMILES | pIC50 [1] | pIC50 [2]
N[C@@H]1c2ccccc2CC12CCN(c1nc3nc(Sc4cccnc4OCc4ncco4)cnc3[nH]1)CC2 [Example 235, (S)-1′-(5-((2-(oxazol-2-ylmethoxy)pyridin-3-yl)thio)-1H-imidazo[4,5-b]pyrazin-2-yl)-1,3-dihydrospiro[indene-2,4′-piperidin]-1-amine] | > 6.30 | 5.30 to 6.00
Nc1nccc(Sc2cnc3nc(N4CCC5(CC4)Cc4ccc(F)cc4[C@H]5N)[nH]c3n2)c1Cl [Example 175, (S)-1′-(6-((2-amino-3-chloropyridin-4-yl)thio)-1H-imidazo[4,5-b]pyrazin-2-yl)-6-fluoro-1,3-dihydrospiro[indene-2,4′-piperidin]-1-amine] | > 6.30 | > 6.00
Cn1cc2cccc(Sc3cnc4[nH]c(N5CCC6(CC5)Cc5ccccc5[C@H]6N)nc4n3)c2n1 [Example 202, (S)-1′-(5-((2-methyl-2H-indazol-7-yl)thio)-1H-imidazo[4,5-b]pyrazin-2-yl)-1,3-dihydrospiro[indene-2,4′-piperidin]-1-amine] | > 6.30 | 5.30 to 6.00
N[C@@H]1c2ccccc2CC12CCN(c1nc3nc(Sc4cccnc4N4CCCC4)cnc3[nH]1)CC2 [Example 225, (S)-1′-(5-((2-(pyrrolidin-1-yl)pyridin-3-yl)thio)-1H-imidazo[4,5-b]pyrazin-2-yl)-1,3-dihydrospiro[indene-2,4′-piperidin]-1-amine] | > 6.30 | < 5.30
CC1(N)CCN(c2nc3nc(Sc4ccccc4S(F)(F)(F)(F)F)cnc3[nH]2)CC1 [Example 74, 4-methyl-1-(5-((2-(pentafluoro-l6-sulfaneyl)phenyl)thio)-1H-imidazo[4,5-b]pyrazin-2-yl)piperidin-4-amine] | > 6.30 | 5.30 to 6.00
CC1(N)CCN(c2nc3nc(Sc4cccc(Cl)c4Cl)ncc3[nH]2)CC1 [Example 144, 1-(2-((2,3-dichlorophenyl)thio)-7H-purin-8-yl)-4-methylpiperidin-4-amine] | 5.52 to 6.30 | < 5.30
Nc1nccc(Sc2cnc3[nH]c(N4CCC5(CC4)Cc4ncccc4[C@H]5N)cc3n2)c1Cl [Example 267, (S)-1′-(2-((2-amino-3-chloropyridin-4-yl)thio)-5H-pyrrolo[2,3-b]pyrazin-6-yl)-5,7-dihydrospiro[cyclopenta[b]pyridine-6,4′-piperidin]-5-amine] | > 6.30 | > 6.00
N[C@@H]1c2cccnc2CC12CCN(c1nc3ncc(Sc4ccc5c(c4Cl)NC(=O)CO5)nc3[nH]1)CC2 [Example 169, (S)-6-((2-(5-amino-5,7-dihydrospiro[cyclopenta[b]pyridine-6,4′-piperidin]-1′-yl)-1H-imidazo[4,5-b]pyrazin-6-yl)thio)-5-chloro-2H-benzo[b][1,4]oxazin-3(4H)-one] | > 6.30 | > 6.00
N[C@@H]1c2ccccc2CC12CCN(c1nc3nc(Sc4nccnc4Cl)cnc3[nH]1)CC2 [Example 158, (S)-1′-(5-((3-chloropyrazin-2-yl)thio)-1H-imidazo[4,5-b]pyrazin-2-yl)-1,3-dihydrospiro[indene-2,4′-piperidin]-1-amine] | > 6.30 | > 6.00
N[C@@H]1c2ccccc2CC12CCN(c1nc3nc(Sc4ccncc4OC(F)(F)F)cnc3[nH]1)CC2 [Example 226, (S)-1′-(5-((3-(trifluoromethoxy)pyridin-4-yl)thio)-1H-imidazo[4,5-b]pyrazin-2-yl)-1,3-dihydrospiro[indene-2,4′-piperidin]-1-amine] | > 6.30 | > 6.00
COc1nccc(Sc2cnc3[nH]c(N4CCC5(CC4)Cc4ccc(Br)cc4[C@H]5N)nc3n2)c1Cl [Example 228, (S)-6-bromo-1′-(5-((3-chloro-2-methoxypyridin-4-yl)thio)-1H-imidazo[4,5-b]pyrazin-2-yl)-1,3-dihydrospiro[indene-2,4′-piperidin]-1-amine] | > 6.30 | < 5.30
N[C@@H]1c2ccccc2OC12CCN(c1nc3nc(Sc4ccnc(NC5CC5)c4Cl)cnc3[nH]1)CC2 [Example 174, (R)-1′-(5-((3-chloro-2-(cyclopropylamino)pyridin-4-yl)thio)-1H-imidazo[4,5-b]pyrazin-2-yl)-3H-spiro[benzofuran-2,4′-piperidin]-3-amine] | > 6.30 | > 6.00
CC1(N)CCN(c2nc3nc(Sc4ccnc5cccnc45)cnc3[nH]2)CC1 [Example 62, 1-(5-((1,5-naphthyridin-4-yl)thio)-1H-imidazo[4,5-b]pyrazin-2-yl)-4-methylpiperidin-4-amine] | > 6.30 | 5.30 to 6.00
N[C@@H]1c2cccnc2CC12CCN(c1nc3ncc(Sc4cc(Cl)c5[nH]c(=O)oc5c4)nc3[nH]1)CC2 [Example 168, (S)-6-((2-(5-amino-5,7-dihydrospiro[cyclopenta[b]pyridine-6,4′-piperidin]-1′-yl)-1H-imidazo[4,5-b]pyrazin-6-yl)thio)-4-chlorobenzo[d]oxazol-2(3H)-one] | > 6.30 | < 5.30
COc1nccc(Sc2cnc3[nH]c(N4CCC5(CC4)Cc4ncccc4[C@H]5N)nc3n2)c1Cl [Example 151, (S)-1′-(5-((3-chloro-2-methoxypyridin-4-yl)thio)-1H-imidazo[4,5-b]pyrazin-2-yl)-5,7-dihydrospiro[cyclopenta[b]pyridine-6,4′-piperidin]-5-amine] | > 6.30 | < 5.30
C[C@@H]1OCC2(CCN(c3cc4nc(Sc5ccnc(N)c5Cl)cnc4[nH]3)CC2)[C@@H]1N [Example 268, (3S,4S)-8-(2-((2-amino-3-chloropyridin-4-yl)thio)-5H-pyrrolo[2,3-b]pyrazin-6-yl)-3-methyl-2-oxa-8-azaspiro[4.5]decan-4-amine] | > 6.30 | > 6.00
